Results reported in ChEMBL document CHEMBL1201862, “PubChem BioAssay data set” (2004).
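Briefly, cells in 96-well plates were exposed to five compound concentrations for 48 h, and endpoints were estimated by linear interpolation. The concentration for 50% growth inhibition is given as GI50.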 Calls of active or inactive are those of the source. No stated cut-off is given here; in the data, active = GI50 up to about 1.1 µM and inactive = higher.

How the values were obtained:
Assay in all cases: NCI tumour cell line growth inhibition, 48 h
SK-MEL-2 = tested on: SK-MEL-2
SNB-19 = tested on: SNB-19
RXF 393 = tested on: RXF 393
SF-295 = tested on: SF-295
OVCAR-3 = tested on: OVCAR-3
NCI-H226 = tested on: NCI-H226
SK-MEL-5 = tested on: SK-MEL-5
SN12C = tested on: SN12C
HCT-116 = tested on: HCT-116
SF-268 = tested on: SF-268
HCT-15 = tested on: HCT-15
NCI-H460 = tested on: NCI-H460
HT-29 = tested on: HT-29
A498 = tested on: A498
KM12 = tested on: KM12
HL-60 = tested on: HL-60
NCI-H522 = tested on: NCI-H522
CCRF-CEM = tested on: CCRF-CEM
U-251 = tested on: U-251
K562 = tested on: K562

| Compound | GI50 (SK-MEL-2) | GI50 (SNB-19) | GI50 (RXF 393) | GI50 (SF-295) | GI50 (OVCAR-3) | GI50 (NCI-H226) | GI50 (SK-MEL-5) | GI50 (SN12C) | GI50 (HCT-116) | GI50 (SF-268) | GI50 (HCT-15) [µM] | GI50 (NCI-H460) | GI50 (HT-29) | GI50 (A498) | GI50 (KM12) | GI50 (HL-60) | GI50 (NCI-H522) | GI50 (CCRF-CEM) | GI50 (U-251) | GI50 (K562) |
| --- | --- | --- | --- | --- | --- | --- | --- | --- | --- | --- | --- | --- | --- | --- | --- | --- | --- | --- | --- | --- |
| Cc1c(/N=C/C=C/c2ccccc2)c(=O)n(-c2ccccc2)n1C | 88.7 µM (inactive) | 30.1 µM (inactive) | 39.7 µM (inactive) | 14.4 µM (inactive) | 24.5 µM (inactive) | 13.6 µM (inactive) | 15.3 µM (inactive) | 16.1 µM (inactive) | 13.7 µM (inactive) | 33.6 µM (inactive) | 47 | 87.5 µM (inactive) | 27.5 µM (inactive) | 14.7 µM (inactive) | 21.3 µM (inactive) | 16.1 µM (inactive) | 50.8 µM (inactive) | 6.87 µM (inactive) | 15.6 µM (inactive) |  |
| CN(C)CCCNC(=O)c1cccc2ccccc12 | > 100 µM (inactive) | > 100 µM (inactive) | > 100 µM (inactive) | > 100 µM (inactive) | > 100 µM (inactive) | > 100 µM (inactive) | > 100 µM (inactive) | > 100 µM (inactive) | > 100 µM (inactive) | > 100 µM (inactive) | > 100 | > 100 µM (inactive) | > 100 µM (inactive) |  | > 100 µM (inactive) | 12.7 µM (inactive) | > 100 µM (inactive) | > 100 µM (inactive) | > 100 µM (inactive) | > 100 µM (inactive) |
| CN1C=C(C(N)=O)C2CC(O)[C@@](NC(=O)CS(N)(=O)=O)(C(=O)O)C2C1 (some centres undefined) | 2.92 µM (inactive) | 2.79 µM (inactive) | 1.76 µM (inactive) | 2.75 µM (inactive) | 17.5 µM (inactive) | 2.68 µM (inactive) | 6.31 µM (inactive) | 18.2 µM (inactive) | 3.32 µM (inactive) | 3.02 µM (inactive) | 8.91 | 3.49 µM (inactive) | 3.33 µM (inactive) | 2.03 µM (inactive) | 20.7 µM (inactive) | < 0.01 µM (active) | 11.7 µM (inactive) | 9.33 µM (inactive) | 3.05 µM (inactive) | 2.17 µM (inactive) |
| O=C(Nc1ccn(CCO)c(=O)n1)c1ccccc1 | > 100 µM (inactive) |  | > 100 µM (inactive) | > 100 µM (inactive) | > 100 µM (inactive) | > 100 µM (inactive) | > 100 µM (inactive) | > 100 µM (inactive) | > 100 µM (inactive) | > 100 µM (inactive) | > 100 | > 100 µM (inactive) | > 100 µM (inactive) | > 100 µM (inactive) | > 100 µM (inactive) | > 100 µM (inactive) | > 100 µM (inactive) | > 100 µM (inactive) | > 100 µM (inactive) | > 100 µM (inactive) |
| CCOC(=O)NC(Nc1cc(Cl)ccc1OC)(C(F)(F)F)C(F)(F)F | > 100 µM (inactive) | > 100 µM (inactive) | 68.9 µM (inactive) |  | > 100 µM (inactive) | > 100 µM (inactive) | > 100 µM (inactive) | > 100 µM (inactive) | > 100 µM (inactive) | > 100 µM (inactive) | > 100 | > 100 µM (inactive) | > 100 µM (inactive) | > 100 µM (inactive) | > 100 µM (inactive) | > 100 µM (inactive) | 64 µM (inactive) | 25.9 µM (inactive) | > 100 µM (inactive) | > 100 µM (inactive) |
| S=C1SC(=N\c2ccccc2)/C(=N/c2ccccc2)N1c1ccc2ccccc2c1 | > 100 µM (inactive) | > 100 µM (inactive) | 7.26 µM (inactive) | > 100 µM (inactive) | > 100 µM (inactive) | > 100 µM (inactive) | 38.1 µM (inactive) | > 100 µM (inactive) | 12.1 µM (inactive) |  | 93.3 | > 10 µM (inactive) |  | > 100 µM (inactive) | > 100 µM (inactive) | > 100 µM (inactive) | > 100 µM (inactive) | > 100 µM (inactive) | > 100 µM (inactive) | > 100 µM (inactive) |
| CCCO/N=[N+](\[O-])N(CC)CC | > 100 µM (inactive) | > 100 µM (inactive) | > 100 µM (inactive) | > 100 µM (inactive) | > 100 µM (inactive) | > 100 µM (inactive) | > 100 µM (inactive) | > 100 µM (inactive) | > 100 µM (inactive) | > 100 µM (inactive) | > 100 | > 100 µM (inactive) | > 100 µM (inactive) | > 100 µM (inactive) | > 100 µM (inactive) | > 100 µM (inactive) | > 100 µM (inactive) | > 100 µM (inactive) | > 100 µM (inactive) | > 100 µM (inactive) |
